# From paper PMC11458808, “Identification and development of a series of disubstituted piperazines for the treatment of Chagas disease” (European Journal of Medicinal Chemistry, 2022)
# Like-named read-outs stand apart in the source and are kept apart here.
# Assays:
# [1] = test system: intracellular T. cruzi X10/7 A1 amastigotes; test: Intracellular T. cruzi assay; type: cell-based, Trypanosoma cruzi; conditions: for EC50: Trypanosoma cruzi, read-out: T. cruzi (pEC50) (converted); for Activity in the intracellular T. cruzi assay (in words): purified compound
# Experimental: 1.1 Intracellular T. cruzi assay: Potency against intracellular T. cruzi X10/7 A1 amastigotes was determined as described previously with as sole modification that the compound treatment duration was increased from 72h to 96h.
# [2] = Intrinsic clearance in mouse liver microsomes; type: in vitro ADME; conditions: for Mouse CLi: mouse liver microsomal intrinsic clearance
# Experimental: 2.2 Intrinsic clearance: This assay was conducted as previously described in [5].
# [3] = Aqueous (kinetic) solubility by CAD; type: physicochemical; conditions: kinetic solubility measured by CAD
# Experimental: 2.1 Aqueous solubility: This assay was conducted as previously described in [4].
# [4] = ChromLogD pH7.4 (chromatographic hydrophobicity index); type: physicochemical; conditions: pH 7.4, CHIpH7.4 × 0.0857–2; for chromatographic logD: read-out: ChromlogDpH7.4
# [5] = test system: T. cruzi infected Vero cells; test: Washout assay; type: cell-based, Trypanosoma cruzi; conditions: 8 days treatment
# Experimental: (Supplementary Information, Fig. S1). We tested 1 in a T. cruzi washout assay to assess the compound's ability to clear all parasites in vitro. In this experiment, T. cruzi, cultured in Vero cells were treated with compound 1 at 20- to 30-fold the EC50 for 8 days (with compound being re-supplemented after 4 days). After treatment, the culture medium containing compound 1 was removed, the cell monolayer was washed extensively and then incubated with fresh medium containing no compound 1. […] The same result was obtained in three independent experiments (Supplementary Information, Table S1). […] We therefore ran a 4-day PK study on 1, dosing at 50 mg/kg twice daily. As the intrinsic clearance was very high, compound 1 was co-dosed with 1-ABT (1-aminobenzotriazole) to inhibit CYP-mediated degradation and maximise exposure. […] As this was a novel series with an unknown mechanism of action, the PKPD drivers were unknown, so this coverage was considered suitable for progression to an animal model of Chagas disease. Compound 1 was dosed twice daily at 50 mg/kg for 5 days in an acute Chagas disease mouse efficacy study. This mouse model, developed by the Kelly laboratory, is able to distinguish between benznidazole (clinically effective) and posaconazole (clinically ineffective).
# 1.2 Washout assay: Vero cells were infected overnight at MOI 5 with T. cruzi X10/7 A1 trypomastigotes in MEM media (Gibco) containing 10% FCS (Hyclone) followed by washing of the monolayer to remove any extracellular trypomastigotes. 24 h later, infected cells were trypsinised and plated in T25 flasks in presence of compounds at the indicated concentrations and incubated for 8 days in MEM media (Gibco) containing 1% FCS. Four days into the treatment the media was replaced with fresh compound-containing media. After the treatment period, monolayers were washed extensively. The cultures were then maintained, replacing media twice weekly, until trypomastigotes could be observed by light microscopy. Observations were carried out twice weekly for up to 60 days post washout.
# Results for three independent washout experiments (experiment c is reported in the main manuscript). T. cruzi infected Vero cells were treated for 8 days at the indicated concentrations (compounds replenished after 4 days), followed by extensive washing to remove compounds and incubation until parasites were observed microscopically. ^a day after washout of compounds on which egressed parasites were detected first.
# [6] = potency against intracellular T. cruzi amastigotes, at least three independent replicates, standard deviations ≤0.2
SMILES,"EC50 [1, 6]",Mouse CLi [2],solubility [3],chromatographic logD [4],"Relapse Day ([5]; experiment a, 0.2 µM, 50-fold EC50)","Relapse Day ([5]; experiment b, 0.2 µM, 50-fold EC50)","Relapse Day ([5]; experiment c, 0.1 μM, 25-fold EC50)",Activity in the intracellular T. cruzi assay (in words) [1],Clearance (mouse liver microsomal) [2],"T. cruzi (pEC50) [1, 6]","Clearance (mouse liver microsomal) ([2]; mouse, microsomes)",ChromlogDpH7.4 [4]
"Cc1ccc(S(=O)(=O)Nc2ccc(NC3CCN(C(=O)c4cccc(Cl)c4)CC3)cc2)cc1 [Compound 36, N-(4-((1-(3-chlorobenzoyl)piperidin-4-yl)amino)phenyl)-4-methylbenzenesulfonamide]",20 µM,25 mL/min/g,18 µM,5.6,,,,,,,,
CC[C@@H]([C@H](C)O)n1ncn(-c2ccc(N3CCN(c4ccc(OC[C@@H]5CO[C@@](Cn6cncn6)(c6ccc(F)cc6F)C5)cc4)CC3)cc2)c1=O [posaconazole],,,,,7 days,11 days,7 days,,,,,
"COc1ccc(S(=O)(=O)Nc2ccc(CCN3CCN(C(=O)c4cccc(Cl)c4)CC3)cc2)cc1 [Compound 40, N-(4-(2-(4-(3-chlorobenzoyl)piperazin-1-yl)ethyl)phenyl)-4-methoxybenzenesulfonamide]",5.01 µM,>50 mL/min/g,35 µM,5.5,,,,,,,,
"COc1ccc(S(=O)(=O)Nc2ccc(OC3CCN(C(=O)c4cccc(Cl)c4)CC3)cc2)cc1 [Compound 28, N-(4-((1-(3-chlorobenzoyl)piperidin-4-yl)oxy)phenyl)-4-methoxybenzenesulfonamide]",5.01 µM,37 mL/min/g,< 1 µM,5.9,,,,,,,,
"COc1ccc(S(=O)(=O)Nc2ccc(CN3CCN(C(=O)c4cncc(Cl)c4)CC3)cc2)cc1 [Compound 16, N-(4-((4-(5-chloronicotinoyl)piperazin-1-yl)methyl)phenyl)-4-methoxybenzenesulfonamide]",1 µM,>50 mL/min/g,171 µM,4.3,,,,,,,,
"Cc1ccc(S(=O)(=O)Nc2ccc(CN3CCN(C(=O)c4cc5ccccc5[nH]4)CC3)cc2)cc1 [Compound 23, N-(4-((4-(1H-indole-2-carbonyl)piperazin-1-yl)methyl)phenyl)-4-methylbenzenesulfonamide]",0.2 µM,40 mL/min/g,< 1 µM,5.6,,,,,,,,
"Cc1ccc(S(=O)(=O)Nc2ccc(CN3CCN(C(=O)C4CCc5ccccc54)CC3)cc2)cc1 (stereo not shown) [Compound 24, N-(4-((4-(2,3-dihydro-1H-indene-1-carbonyl)piperazin-1-yl)methyl)phenyl)-4-methylbenzenesulfonamide]",3.98 µM,>50 mL/min/g,35 µM,5.8,,,,,,,,
"COc1ccc(S(=O)(=O)Nc2ncc(CN3CCN(C(=O)c4cccc(Cl)c4)CC3)nc2OC)cc1 [Compound 46, N-(5-((4-(3-chlorobenzoyl)piperazin-1-yl)methyl)-3-methoxypyrazin-2-yl)-4-methoxybenzenesulfonamide]",> 50.1 µM,1.2 mL/min/g,≥ 443 µM,4,,,,lacked any activity,,,,
"COc1ccc(S(=O)(=O)Nc2ccc(CN3CCN(C(=O)c4ccccc4)CC3)cc2)cc1 [Compound 10, N-(4-((4-benzoylpiperazin-1-yl)methyl)phenyl)-4-methoxybenzenesulfonamide]",3.16 µM,>50 mL/min/g,116 µM,4.6,,,,,,,,
"COc1ccc(S(=O)(=O)Nc2ccc(CN3CCN(C(=O)Cn4cccnc4=O)CC3)cc2)cc1 [Compound 18, 4-methoxy-N-(4-((4-(2-(2-oxopyrimidin-1(2H)-yl)acetyl)piperazin-1-yl)methyl)phenyl)benzenesulfonamide]",> 50.1 µM,<0.5 mL/min/g,≥ 336 µM,2.3,,,,,,,,
"COc1ccc(S(=O)(=O)Nc2ncc(CN3CCN(C(=O)c4cccc(Cl)c4)CC3)cn2)cc1 [Compound 42, N-(5-((4-(3-chlorobenzoyl)piperazin-1-yl)methyl)pyrimidin-2-yl)-4-methoxybenzenesulfonamide]",> 50.1 µM,1.0 mL/min/g,≥ 345 µM,3.1,,,,lacked any activity,,,,
"COc1ccc(S(=O)(=O)Nc2ccc(CN3CCN(C(=O)c4cccc(Cl)c4)CC3)cc2)cc1 [Compound 4, N-(4-((4-(3-chlorobenzoyl)piperazin-1-yl)methyl)phenyl)-4-methoxybenzenesulfonamide]",0.501 µM,>50 mL/min/g,43 µM,5.6,,,,,> 50 mL/min/g,,,
"Cc1ccc(S(=O)(=O)Nc2ccc(CN3C[C@@H]4CN(C(=O)c5cccc(Cl)c5)C[C@@H]4C3)cc2)cc1 [Compound 35, N-(4-(((3aR,6aS)-5-(3-chlorobenzoyl)hexahydropyrrolo[3,4-c]pyrrol-2(1H)-yl)methyl)phenyl)-4-methylbenzenesulfonamide]",6.31 µM,>50 mL/min/g,25 µM,5.8,,,,,,,,
"COc1ccc(S(=O)(=O)Nc2cnc(CN3CCN(C(=O)c4cccc(Cl)c4)CC3)cn2)cc1 [Compound 45, N-(5-((4-(3-chlorobenzoyl)piperazin-1-yl)methyl)pyrazin-2-yl)-4-methoxybenzenesulfonamide]",> 50.1 µM,1.3 mL/min/g,≥ 414 µM,2.8,,,,lacked any activity,,,,
"COc1ccc(S(=O)(=O)Nc2ccc(CN3CCN(C(=O)c4cc(Cl)ccc4OC)CC3)cc2)cc1 [Compound 14, N-(4-((4-(5-chloro-2-methoxybenzoyl)piperazin-1-yl)methyl)phenyl)-4-methoxybenzenesulfonamide]",2 µM,>50 mL/min/g,27 µM,5.2,,,,,,,,
"COc1ccc(S(=O)(=O)Nc2ccc(CN3CCN(C(=O)C4CC(O)(C(F)(F)F)C4)CC3)cc2)cc1 (stereo not shown) [Compound 22, N-(4-((4-(3-hydroxy-3-(trifluoromethyl)cyclobutane-1-carbonyl)piperazin-1-yl)methyl)phenyl)-4-methoxybenzenesulfonamide]",> 50.1 µM,8.0 mL/min/g,≥ 374 µM,4.3,,,,,,,,
"Cc1ccc(S(=O)(=O)Nc2ccc(CN3CCC(NC(=O)c4cccc(Cl)c4)CC3)cc2)cc1 [Compound 37, 3-chloro-N-(1-(4-((4-methylphenyl)sulfonamido)benzyl)piperidin-4-yl)benzamide]",3.16 µM,37 mL/min/g,42 µM,5.3,,,,,,,,
COc1ccc(S(=O)(=O)Nc2ccc(Cn3cc4c(n3)CN(C(=O)c3cccc(Cl)c3)C4)cc2)cc1 [Compound 29],,12 mL/min/g,19 µM,,,,,,,4.9,12 mL/min/g,5.0
"COc1ccc(S(=O)(=O)Nc2nnc(CN3CCN(C(=O)c4cccc(Cl)c4)CC3)o2)cc1 [Compound 41, N-[5-[[4-(3-chlorobenzoyl)piperazin-1-yl]methyl]-1,3,4-oxadiazol-2-yl]-4-methoxy-benzenesulfonamide]",> 50.1 µM,0.6 mL/min/g,≥ 404 µM,1.9,,,,inactive,,,,
"COc1ccc(S(=O)(=O)Nc2ccc(CN3CCN(C(=O)c4ccc(OC)c(Cl)c4)CC3)cc2)cc1 [Compound 13, N-[4-[[4-(3-chloro-4-methoxy-benzoyl)piperazin-1-yl]methyl]phenyl]-4-methoxy-benzenesulfonamide]",3.16 µM,>50 mL/min/g,18 µM,5.1,,,,,,,,
